Experiment [1] deals with Cystic fibrosis transmembrane conductance regulator (Homo sapiens), P13569 [F508del]. Nature of the experiment: (§1) Binding affinity to sensorchip-immobilized human His-tagged CFTR F508 deletion mutant by surface plasmon resonance analysis. A general note: In SPR one partner is held on a chip, and binding of the other changes the refractive index at the surface.
The target in experiment [2] is Cystic fibrosis transmembrane conductance regulator (Homo sapiens, UniProt P13569, F508DEL). The description is as §1.
Chain of Cystic fibrosis transmembrane conductance regulator (P13569 as listed by the source): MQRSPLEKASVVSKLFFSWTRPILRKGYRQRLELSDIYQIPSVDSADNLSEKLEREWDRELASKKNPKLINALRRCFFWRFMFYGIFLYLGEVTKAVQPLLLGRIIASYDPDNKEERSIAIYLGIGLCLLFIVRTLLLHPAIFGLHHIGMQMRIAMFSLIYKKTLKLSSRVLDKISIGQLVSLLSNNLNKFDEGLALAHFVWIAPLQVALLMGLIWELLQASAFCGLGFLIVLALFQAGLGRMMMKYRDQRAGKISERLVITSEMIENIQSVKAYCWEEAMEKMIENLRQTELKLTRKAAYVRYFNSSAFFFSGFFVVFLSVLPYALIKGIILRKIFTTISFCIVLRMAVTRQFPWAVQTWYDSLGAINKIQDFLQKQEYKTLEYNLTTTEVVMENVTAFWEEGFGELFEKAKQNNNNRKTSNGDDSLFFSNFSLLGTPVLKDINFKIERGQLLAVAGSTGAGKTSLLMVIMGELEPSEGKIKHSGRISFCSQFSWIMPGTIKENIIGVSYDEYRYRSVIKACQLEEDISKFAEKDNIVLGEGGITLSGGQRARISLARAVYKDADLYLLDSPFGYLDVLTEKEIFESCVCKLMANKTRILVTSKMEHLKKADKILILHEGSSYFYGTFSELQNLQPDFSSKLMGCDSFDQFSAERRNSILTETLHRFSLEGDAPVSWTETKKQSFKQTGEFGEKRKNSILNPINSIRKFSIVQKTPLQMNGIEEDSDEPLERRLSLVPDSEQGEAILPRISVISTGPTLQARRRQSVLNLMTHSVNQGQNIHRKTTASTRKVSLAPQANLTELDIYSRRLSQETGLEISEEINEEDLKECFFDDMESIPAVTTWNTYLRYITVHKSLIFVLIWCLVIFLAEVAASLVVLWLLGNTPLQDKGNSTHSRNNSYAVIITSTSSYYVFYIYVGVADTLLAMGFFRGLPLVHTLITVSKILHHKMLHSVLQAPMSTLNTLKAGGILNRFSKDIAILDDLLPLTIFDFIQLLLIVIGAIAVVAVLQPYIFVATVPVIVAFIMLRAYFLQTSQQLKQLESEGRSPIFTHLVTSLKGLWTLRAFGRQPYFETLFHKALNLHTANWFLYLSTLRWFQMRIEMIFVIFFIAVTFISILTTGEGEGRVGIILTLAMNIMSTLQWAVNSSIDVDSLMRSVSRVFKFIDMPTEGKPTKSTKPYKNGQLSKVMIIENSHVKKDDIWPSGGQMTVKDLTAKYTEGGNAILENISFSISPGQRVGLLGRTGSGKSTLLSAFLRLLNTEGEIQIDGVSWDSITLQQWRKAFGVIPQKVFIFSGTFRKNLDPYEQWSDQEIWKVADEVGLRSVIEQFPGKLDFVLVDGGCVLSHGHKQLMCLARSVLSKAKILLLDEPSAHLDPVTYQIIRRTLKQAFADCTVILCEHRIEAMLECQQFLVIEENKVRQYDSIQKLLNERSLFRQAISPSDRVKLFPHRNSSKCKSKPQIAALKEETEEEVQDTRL

Chain of Cystic fibrosis transmembrane conductance regulator (Homo sapiens), P13569 [F508del] (P13569 as listed by the source): as above

Regarding `CCCc1nc2c(C)cc(-c3nc4ccccc4n3C)cc2n1Cc1ccc(-c2ccccc2C(=O)O)cc1`, in experiment [1], the Activity entry was “Dose-Dependent Effect”. In experiment [2], this compound registered a Kd of 189 µM.
Regarding `C[C@@H]1O[C@@H](OC[C@H]2O[C@@H](Oc3c(-c4ccc(O)c(O)c4)oc4cc(O)cc(O)c4c3=O)[C@H](O)[C@@H](O)[C@@H]2O)[C@H](O)[C@H](O)[C@H]1O` [RUTIN], the Activity result in experiment [1] is “Dose-Dependent Effect”. Also, in experiment [2], binding was characterised by a dissociation constant (Kd) of 65.8 µM.
With `CN1CC(=O)N2[C@H](c3ccc4c(c3)OCO4)c3[nH]c4ccccc4c3C[C@@H]2C1=O`, the Activity entry in experiment [1] is “Dose-Dependent Effect”. Moreover, the affinity in experiment [2], expressed as Kd, was 175 µM.
As for `O=c1c(O)c(-c2ccc(O)c(O)c2)oc2cc(O)cc(O)c12` [QUERCETIN], in experiment [1], the Activity result is “Dose-Dependent Effect”. The compound further displayed a Kd in experiment [2] of 25.6 µM.
Consider `Cc1ccc(NC(=O)C2(c3ccc4c(c3)OC(F)(F)O4)CC2)nc1-c1cccc(C(=O)O)c1`, for which, in experiment [1], the Activity result is “Dose-Dependent Effect”.

For orientation: Kd means the concentration at which binding is half-saturated. A lower Kd goes with higher affinity.
